From patent US20040116420A1 (priority 2001, published 2004)

Legend:
Vero cells = assay: Cytotoxicity, Vero cells, Alamar Blue; assay type: cell-based; conditions: 25 μM, 20 hours
Outline: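 Living-cell ratio versus untreated control was read by Alamar Blue absorbance after about 6 h of dye incubation. Before that, Vero cells had received 25 μM test compound in 2% FBS-DMEM for 20 hours at 37 °C under 5% CO2.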

HSV-1 = assay: Antiviral activity, HSV-1 in Vero cells, plaque method; assay type: cell-based; conditions: Human alphaherpesvirus 1, 20 hours, 90% inhibition of plaque formation
Outline: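 This is a virus-yield read-out. The culture medium was frozen at −80° C and thawed, and the plaques it formed were counted. It came from Vero monolayers infected with 50,000 pfu HSV-1 and then exposed to the compound for 20 h at 37° C. EC90 is the concentration inhibiting 90% of plaque formation relative to the untreated infected control.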

HSV-1 protease = molecular target: T1, HSV-1 protease (Human herpesvirus 1, UniProt P10210); assay: Enzymatic assay for HSV-1 protease (assembly) inhibitor, fluorescence polarization; assay type: biochemical; conditions: read-out: HSV-1 Enzyme inhibition IC50
T1 construct: 6xHis (N); made in house; host or cells: baculovirus expression system
T1 sequence (P10210 1-247): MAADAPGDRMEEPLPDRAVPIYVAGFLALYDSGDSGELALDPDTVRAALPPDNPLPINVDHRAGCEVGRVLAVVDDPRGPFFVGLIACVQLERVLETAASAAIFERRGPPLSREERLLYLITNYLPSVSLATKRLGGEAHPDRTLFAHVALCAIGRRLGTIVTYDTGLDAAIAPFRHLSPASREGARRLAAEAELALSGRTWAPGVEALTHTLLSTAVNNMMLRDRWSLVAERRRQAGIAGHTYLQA
Outline: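 Fluorescence polarization read-out: after avidin stop, cleavage of a biotinylated DTAF-labelled release-site peptide by recombinant N-His6 HSV-1 protease was compared with no-inhibitor wells. Enzyme and compound were preincubated 30 min, then substrate reacted 60 min, all at room temperature, pH 7.4 citrate buffer with TCEP.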

Compound	EC90 (HSV-1) [µM]	IC50 (HSV-1 protease) [µM]	Cell viability (% of control) (Vero cells) [%]
Cc1c(NC(=O)C(C)(C)C)ccc2nc(NC(C)(C)C(=O)N(C)CCc3ccccn3)oc(=O)c12 [Compound No.136, 2,2-Dimethyl-N-(5-methyl-2-{1-methyl-1-[methyl-(2-pyridin-2-yl-ethyl)-carbamoyl]-ethylamino}-4-oxo-4H-benzo[d][1,3]oxazin-6-yl)-propionamide]	> 12.5	4.5	81.8
COc1cc(OC)cc(C(=O)Nc2ccc3nc(NC(C)(C)C(=O)N(C)CCc4ccccn4)oc(=O)c3c2C)c1 [compound 191, 3,5-Dimethoxy-N-(5-methyl-2-{1-methyl-1-[methyl-(2-pyridin-2-yl-ethyl)-carbamoyl]-ethylamino}-4-oxo-4H-benzo[d][1,3]oxazin-6-yl)-benzamide]	> 12.5	0.6	89.1
Cc1c(NC(=O)OC(C)(C)C)ccc2nc(NC(C)(C)C(=O)N(C)CCc3ccncc3)oc(=O)c12 [Compound No.51, (5-Methyl-2-{1-methyl-1-[methyl-(2-pyridin-4-yl-ethyl)-carbamoyl]-ethylamino}-4-oxo-4H-benzo[d][1,3]oxazin-6-yl)-carbamic acid tert-butyl ester]	9.3	0.6	106.0
Cc1c(NC(=O)OC(C)(C)C)ccc2nc(N[C@H](C(=O)NCCc3ccccn3)C(C)C)oc(=O)c12 [Compound No.26, {5-Methyl-2-[2-methyl-1S-(2-pyridin-2-ylethylcarbamoyl)-propylamino]-4-oxo-4H-benzo[d][1,3]oxazin-6-yl}-carbamic acid tert-butyl ester]	13	3.2	107.0
Cc1c(NC(=O)c2ccccc2Cl)ccc2nc(NC(C)(C)C(=O)N(C)CCc3ccccn3)oc(=O)c12 [compound 151, 2-Chloro-N-(5-methyl-2-{1-methyl-1-[methyl-(2-pyridin-2-yl-ethyl)-carbamoyl]-ethylamino}-4-oxo-4H-benzo[d][1,3]oxazin-6-yl)-benzamide]	7.6	1.4	74.2
Cc1c(NC(=O)OC(C)(C)C)ccc2nc(N(C)[C@@H](Cc3ccccc3)C(=O)N(C)CCc3cccnc3)oc(=O)c12 [Compound No.84, [5-Methyl-2-(methyl-{1S-[methyl-(2-pyridin-3-yl-ethyl)-carbamoyl]-2-phenyl-ethyl}-amino)-4-oxo-4H-benzo[d][1,3]oxazin-6-yl]-carbamic acid tert-butyl ester]	11	1.7	37.6
Cc1c(NC(=O)OC(C)(C)C)ccc2nc(N3C[C@H](OCc4ccccc4)C[C@H]3C(=O)N(C)Cc3ccccn3)oc(=O)c12 [Compound No.113, {2-[4R-Benzyloxy-2S-(methyl-pyridin-2-ylmethyl-carbamoyl)-pyrrolidin-1-yl]-5-methyl-4-oxo-4H-benzo[d][1,3]oxazin-6-yl}-carbamic acid tert-butyl ester]	8.8	10.1	71.7
Cc1c(NC(=O)OC(C)(C)C)ccc2nc(N[C@@H](CCc3ccccc3)C(=O)NCc3ccncc3)oc(=O)c12 [Compound No.41, (5-Methyl-4-oxo-2-{3-phenyl-1S-[(pyridin-4-ylmethyl)-carbamoyl]-propylamino}-4H-benzo[d][1,3]oxazin-6-yl)-carbamic acid tert-butyl ester]	> 25	5.6	101.0
Cc1c(NC(=O)OC(C)(C)C)ccc2nc(N[C@H](C(=O)NCc3ccccn3)C(C)(C)C)oc(=O)c12 [Compound No.32, (2-{2,2-dimethyl-1S-[(pyridin-2-ylmethyl)-carbamoyl]-propylamino}-5-methyl-4-oxo-4H-benzo[d][1,3]oxazin-6-yl)-carbamic acid tert-butyl ester]	21.5	19.6	111.0
Cc1c(NC(=O)c2ccccc2OC(F)(F)F)ccc2nc(NC(C)(C)C(=O)N(C)CCc3ccccn3)oc(=O)c12 [Compound No.182, N-(5-Methyl-2-{1-methyl-1-[methyl-(2-pyridin-2-yl-ethyl)-carbamoyl]-ethylamino}-4-oxo-4H-benzo[d][1,3]oxazin-6-yl)-2-trifluoromethoxy-benzamide]	> 12.5	4.9	95.2
Cc1c(NC(=O)OC(C)(C)C)ccc2nc(N(C)[C@@H](C)C(=O)N(C)CCc3ccncc3)oc(=O)c12 [Compound No.78, [5-Methyl-2-(methyl-{1S-[methyl-(2-pyridin-4-yl-ethyl)-carbamoyl]-ethyl}-amino)-4-oxo-4H-benzo[d][1,3]oxazin-6-yl]-carbamic acid tert-butyl ester]	> 12.5	1.4	90.7

More lines, main results first:

EC90 (HSV-1) [µM]	IC50 (HSV-1 protease) [µM]	Compound	Cell viability (% of control) (Vero cells) [%]
5.9	> 20	Cc1c(NC(=O)OC(C)(C)C)ccc2nc(N[C@H](C(=O)N(C)CCc3ccccn3)C(C)(C)C)oc(=O)c12 [Compound No.44, (2-{2,2-dimethyl-1S-[methyl-(2-pyridin-2-yl-ethyl)-carbamoyl]-propylamino}-5-methyl-4-oxo-4H-benzo[d][1,3]oxazin-6-yl)-carbamic acid tert-butyl ester]	66.2
5.4	2.3	Cc1c(NC(=O)OC(C)(C)C)ccc2nc(N3Cc4ccccc4C[C@H]3C(=O)NCc3ccccn3)oc(=O)c12 [Compound No.94, (5-Methyl-4-oxo-2-{3S-[(pyridin-2-ylmethyl)-carbamoyl]-3,4-dihydro-1H-isoquinolin-2-yl}-4H-benzo[d][1,3]oxazin-6-yl)-carbamic acid tert-butyl ester]	55.2
< 3.2	0.9	Cc1c(NC(=O)OC(C)(C)C)ccc2nc(N[C@@H](Cc3ccccc3)C(=O)N(C)CCc3ccncc3)oc(=O)c12 [Compound No.49, (5-Methyl-2-{1S-[methyl-(2-pyridin-4-yl-ethyl)-carbamoyl]-2-phenyl-ethylamino}-4-oxo-4H-benzo[d][1,3]oxazin-6-yl)-carbamic acid tert-butyl ester]	76.0
8.4	> 20	Cc1c(NC(=O)OC(C)(C)C)ccc2nc(N3Cc4ccccc4C[C@H]3C(=O)N(C)CCc3ccncc3)oc(=O)c12 [Compound No.101, (5-Methyl-2-{3S-[methyl-(2-pyridin-4-yl-ethyl)-carbamoyl]-3,4-dihydro-1H-isoquinolin-2-yl}-4-oxo-4H-benzo[d][1,3]oxazin-6-yl)-carbamic acid tert-butyl ester]	45.5
> 25	> 20	Cc1c(NC(=O)OC(C)(C)C)ccc2nc(N[C@@H](Cc3ccccc3)C(=O)NCc3ccncc3)oc(=O)c12 [Compound No.31, (5-Methyl-4-oxo-2-{2-phenyl-1S-[(pyridin-4-ylmethyl)-carbamoyl]-ethylamino}-4H-benzo[d][1,3]oxazin-6-yl)-carbamic acid tert-butyl ester]	108.0
> 12.5	7.2	CC(=O)OC(C(=O)Nc1ccc2nc(NC(C)(C)C(=O)N(C)CCc3ccccn3)oc(=O)c2c1C)c1ccccc1 (stereo not drawn) [Compound No.192, Acetic acid (5-methyl-2-{1-methyl-1-[methyl-(2-pyridin-2-yl-ethyl)-carbamoyl]-ethylamino}-4-oxo-4H-benzo[d][1,3]oxazin-6-ylcarbamoyl)-phenyl-methyl ester]	93.9
3.5	7	CCCCCc1ccc(C(=O)Nc2ccc3nc(NC(C)(C)C(=O)N(C)CCc4ccccn4)oc(=O)c3c2C)cc1 [Compound No.185, N-(5-Methyl-2-{1-methyl-1-[methyl-(2-pyridin-2-yl-ethyl)-carbamoyl]-ethylamino}-4-oxo-4H-benzo[d][1,3]oxazin-6-yl)-4-pentyl-benzamide]	29.0
6.2	3.3	Cc1cccc(C(=O)Nc2ccc3nc(NC(C)(C)C(=O)N(C)CCc4ccccn4)oc(=O)c3c2C)c1 [compound 157, 3-Methyl-N-(5-methyl-2-{1-methyl-1-[methyl-(2-pyridin-2-yl-ethyl)-carbamoyl]-ethylamino}-4-oxo-4H-benzo[d][1,3]oxazin-6-yl)-benzamide]	70.5
> 12.5	4.4	Cc1c(NC(=O)OC(C)(C)C)ccc2nc(N3CCCC[C@H]3C(=O)N(C)CCc3ccncc3)oc(=O)c12 [Compound No.108, (5-Methyl-2-{2S-[methyl-(2-pyridin-4-yl-ethyl)-carbamoyl]-piperidin-1-yl}-4-oxo-4H-benzo[d][1,3]oxazin-6-yl)-carbamic acid tert-butyl ester]	97.9
≥ 12.5	3.6	Cc1c(NC(=O)C2CCC2)ccc2nc(NC(C)(C)C(=O)N(C)CCc3ccccn3)oc(=O)c12 [Compound No.198, Cyclobutanecarboxylic acid (5-methyl-2-{1-methyl-1-[methyl-(2-pyridin-2-yl-ethyl)-carbamoyl]-ethylamino}-4-oxo-4H-benzo[d][1,3]oxazin-6-yl)-amide]	99.2
